Measured values published in patent publication US9989520B2, “Human hepatoma cell line HLCZ01 and uses thereof” (HUNAN PROVINCIAL TUMOR HOSPITAL, priority 2013, dated 2018).

B1: TRAIL (protein, UniProt P50591 1-281, looked up)
Tumor necrosis factor ligand …: MAMMEVQGGPSLGQTCVLIVIFTVLLQSLCVAVTYVYFTNELKQMQDKYSKSGIACFLKEDDSYWDPNDEESMNSPCWQVKWQLRQLVRKMILRTSEETISTVQEKQQNISPLVRERGPQRVAAHITGTRGRSNTLSSPNSKNEKALGRKINSWESSRSGHSFLSNLHLRNGELVIHEKGFYYIYSQTYFRFQEEIKENTKNDKQMVQYIYKYTSYPDPILLMKSARNSCWSKDAEYGLYSIYQGGIFELKENDRIFVSVTNEHLIDMDHEASFFGAFLVG
notes: TRAIL at the current phase II of clinical trail

Assays:
[1] = test system: hepatitis B virus; test: α-interferon treatment of HBV-infected HLCZ01 cells (amount of HBV, quantitative PCR); type: cell-based, hepatitis B virus (in human hepatoma cell line HLCZ01); conditions: based on amount of α-interferon added and processing time (days), FIG. 9
Description: FIG. 9 is a column diagram for the human hepatoma cell line HLCZ01 according to the above second embodiment of the present invention, illustrating the amount of HBV with respect to the amount of interferon used and time (days).
The human hepatoma cell line HLCZ01 is placed on the 60 mm culture plate. After 24 hours, the medium (DMEM medium) is replaced to the mixture of a supernatant of HepaG2.2.15 cells with a complete medium (1:1 by volume ratio), and then the human hepatoma cell line HLCZ01 is continuously cultured. The cells were passaged every 3 to 5 days. DNA from HBV-infected human hepatoma cell line HLCZ01 was isolated every three days. One microgram of DNA from HBV-infected HLCZ01 cells is used as template for processing quantitative PCR and HBV DNA level in the human hepatoma cell line HLCZ01 is detected.
According to the human hepatoma cell line HLCZ01 of the present invention, the human hepatoma cell line HLCZ01 can also be used for the preparation, screening or evaluating the anti-HBV drugs. […] Therefore, the human hepatoma cell line HLCZ01 of the present invention can be used for the preparation, screening or evaluating the anti-HBV drugs.

[2] = test system: hepatitis C virus; test: α-interferon treatment of HCV-infected HLCZ01 cells (amount of HCV, quantitative PCR); type: cell-based, hepatitis C virus (in human hepatoma cell line HLCZ01); conditions: with respect to doses of α-interferon and time (hours), FIG. 10
Description: FIG. 10 is a column diagram for the human hepatoma cell line HLCZ01 according to the above first embodiment of the present invention, illustrating the amount of HCV with respect to the amount of interferon used and time (hours).
1. The human hepatoma cell line HLCZ01 cells and Huh7.5 cells are placed on the 6-well cell culture plate (200,000/well). After 24 hours, the medium is replaced with medium containing 2% FBS, and the cells are infected by HCV. The medium is changed after 24 hours. Huh7.5 cells and human hepatoma cell line HLCZ01 are cultured for 1 day, 2 days, 3 days and 6 days respectively, and TRIZOL is used to extract total RNA from the above mentioned two cell lines at different time points after virus infection. One microgram of the total RNA is reversely transcribed into cDNA, and 1 μL of cDNA are used as templates for processing quantitative PCR.
According to the human hepatoma cell line HLCZ01 of the present invention, the human hepatoma cell line HLCZ01 can also be used for the preparation, screening or evaluating anti-HCV drugs. […] Therefore, the human hepatoma cell line HLCZ01 of the present invention can be used for the preparation, screening or evaluating the anti-HCV drugs.

[3] = test system: HLCZ01 cells; test: TRAIL sensitivity of HLCZ01 cells by flow cytometry; type: cell-based, human; conditions: HLCZ01 cells treated with TRAIL, FIG. 11

Row | Molecule | amount of HBV in the human hepatoma cell line HLCZ01 [1] | amount of virus in HCV-infected HLCZ01 cells [2] | death of the HLCZ01 cells [3]
1 | α-interferon | able to reduce the amount of HBV in the human hepatoma cell line HLCZ01 | able to reduce the amount of virus in HCV-infected HLCZ01 cells | 
2 | B1 |  |  | able to induce the death of the HLCZ01 cells
